Laboratory results published in patent US20080108581A1, “Compounds and Their Use for Specific and Simultaneous Inhibition of Genes Involved In Diseases and Related Drugs” (INSTITUT NATIONAL DE LA SANTE ET DE LA RECHERCHE MEDICAL …, priority 2003, published 2008).

How the values were obtained:
[1] = molecular target: T1, DNA/topo I cleavage complexes (Homo sapiens, UniProt P11387); assay: Formation of DNA/topo I cleavage complexes in HeLa nuclei followed by immunoblot (CsCl gradient, Western slot blot); assay type: cell-based; details: 3 h at 37° C., 5 μM (FIG. 8)
T1 construct: HeLa nucleus cells (5000000) were prepared and incubated 3 h at 37° C. with the topoisomerase I poison; endogenous in cells; host or cells: HeLa nuclei
T1 sequence (P11387 1-765): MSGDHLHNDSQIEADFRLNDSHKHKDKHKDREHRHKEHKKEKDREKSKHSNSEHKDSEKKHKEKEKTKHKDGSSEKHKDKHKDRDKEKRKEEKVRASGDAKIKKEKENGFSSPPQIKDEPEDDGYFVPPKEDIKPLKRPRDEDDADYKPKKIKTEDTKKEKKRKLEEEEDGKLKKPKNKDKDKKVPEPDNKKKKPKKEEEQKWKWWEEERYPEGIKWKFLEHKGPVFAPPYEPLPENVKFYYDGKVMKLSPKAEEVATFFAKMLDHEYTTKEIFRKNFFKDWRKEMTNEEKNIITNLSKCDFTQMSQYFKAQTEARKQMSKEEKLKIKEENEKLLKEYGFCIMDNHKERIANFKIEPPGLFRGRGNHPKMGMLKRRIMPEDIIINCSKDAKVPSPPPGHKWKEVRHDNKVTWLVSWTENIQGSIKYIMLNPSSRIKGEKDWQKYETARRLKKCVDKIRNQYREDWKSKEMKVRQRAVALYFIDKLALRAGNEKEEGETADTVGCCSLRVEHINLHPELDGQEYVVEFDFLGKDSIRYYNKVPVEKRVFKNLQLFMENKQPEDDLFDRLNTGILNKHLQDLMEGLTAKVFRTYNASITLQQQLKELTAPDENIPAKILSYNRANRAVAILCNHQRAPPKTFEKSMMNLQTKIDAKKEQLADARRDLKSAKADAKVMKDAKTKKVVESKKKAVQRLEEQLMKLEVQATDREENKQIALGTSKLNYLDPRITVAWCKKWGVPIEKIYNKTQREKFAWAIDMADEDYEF
Experimental: FIG. 8 gives correlation results of the biological effects with the formation of DNA/topo I/CPT complexes: the formation of the complexes in the cells was followed by immunoblot.
In the experiments corresponding to FIG. 8, HeLa nucleus cells (5000000) were prepared and incubated 3 h at 37° C. with the topoisomerase I poison free (CPT or ST1578) or coupled to oligonucleotide (TFO-L4-10CPT or TFO-ST1578 or LNA-ST1578), or with a control oligonucleotide (TFO-NH2 or TFO-NPh2) at various concentration (in FIG. 8 at 5 μM). After adding of sarkosyl, the lysates were ultracentrifugated 16 h on a gradient of CsCl. 12 fractions were recovered and analysed by Western slot blot to show the fractions containing topoisomerase I (in 1-4 for the untreated control (mock)).
The fractions containing the DNA were identified by measuring absorbance at 260 nm (fractions 8-10).

human topoisomerase I = molecular target: T2, human topoisomerase I (Homo sapiens, UniProt P11387); assay: Topoisomerase I DNA cleavage test on radiolabelled duplex; assay type: biochemical; details: in vitro, free inhibitors
T2 construct: purchased Invitrogen Inc
T2 sequence (P11387 1-765): T1 sequence (P11387 1-765)
Experimental: The radiolabelled 324-bp duplex in position 3′ on the oligopyrimidine strand (well 1) was incubated with topoisomerase I in the presence of three camptothecin derivatives (wells 2-4, 10CPT, 7CPT, SCPT), or of these three derivatives conjugated with TFO 16 (wells 5-7, TFO16-L4-10CPT, TFO16-L6-CPT, TFO16-L3-SCPT). The cleavage sites are indicated by letters and the binding site of the conjugate is shown diagrammatically. L3=diaminopropynyl; L4=diaminobutyl, L6=diaminohexyl; after incubation, the protein is digested by a treatment with SDS/proteinase K and the cleavage products are analysed on a denaturating gel;
The radiolabelled duplexes (50 nM) are incubated for 1 hour at 30° C., in 50 mM. […] After ethanol precipitation, all the samples are re-suspended in 6 μl of formamide, heated to 90° C. for 4 minutes and cooled again on ice for 4 mins, before being deposited on 8% and 10% denaturing polyacrylamide gel [19/1 acrylamide:bisacrylamide], for the long and short targets respectively, containing 7.5 M urea in 1× TBE buffer (50 mM Tris-HCl, 55 mM boric acid, 1 Mm EDTA), In order to quantify the cleavage intensity, the gels are scanned with a Dynamics 445SI Phosphorimager. […]
The cleavage specificity of the conjugates was measured in vitro by a standard topoisomerase I cleavage test. […]

SMILES	fractions of the CsCl gradient containing topoisomerase I (stabilisation of DNA/topo I cleavage complexes) [1]	stimulation of DNA cleavage by topoisomerase 1 compared with 7-aminoethyl-camptothecin (human topoisomerase I)
CC[C@@]1(O)C(=O)OCc2c1cc1n(c2=O)Cc2cc3ccccc3nc2-1 [CPT, camptothecin]	observed only in fractions containing DNA	
CC[C@@]1(O)C(=O)OCc2c1cc1n(c2=O)Cc2cc3cc(C(=O)O)ccc3nc2-1 [10-carboxycamptothecin, 20S-10-carboxycamptothecin]		more effectively
CC[C@@]1(O)C(=O)OCc2c1cc1n(c2=O)Cc2c-1nc1ccccc1c2C=NCCN [ST1578, 20S-7-aminoethyliminomethylcamptothecin]	observed only in fractions containing DNA	
